Assay results published in the supplement of paper PMC10307832.

Assays:
Test in all cases: relative viability (nuclei count vs DMSO), 5 days (fraction); higher = more cells survive
[1] = compound: CCn1c(-c2nonc2N)nc2c(C#CC(C)(C)O)ncc(OC[C@H]3CCCNC3)c21 + COc1cc2c(Oc3ccc(NC(=O)C4(C(=O)Nc5ccc(F)cc5)CC4)cc3F)ccnc2cc1OCCCN1CCOCC1 [Foretinib] (partner 0.25 µM)
How it was run: (§1)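 Relative viability was taken as the ratio of nuclei in treated wells to nuclei in vehicle wells. Lung cancer cell lines in 1536-well plates received compounds by pin tool one day after seeding, either one drug alone or a fixed anchor-drug dose plus five library-drug doses (not always all listed) in √10 steps. Nuclei were counted on 4× images after 5 days of treatment, and values are medians of duplicate plates.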

BAM7 + Tozasertib = compound: CCOC1=CC=CC=C1N=NC2=C(NN(C2=O)C3=NC(=CS3)C4=CC=CC=C4)C [BAM7] + Cc1cc(Nc2cc(N3CCN(C)CC3)nc(Sc3ccc(NC(=O)C4CC4)cc3)n2)n[nH]1 [Tozasertib] (partner 0.1 µM)
How it was run: as §1

[2] = compound: CCn1c(-c2nonc2N)nc2c(C#CC(C)(C)O)ncc(OC[C@H]3CCCNC3)c21 + CC(C)C[C@H](NC(=O)[C@H](Cc1ccccc1)NC(=O)c1cnccn1)B(O)O [Bortezomib] (partner 0.002 µM)
How it was run: as §1

[3] = compound: CCn1c(-c2nonc2N)nc2c(C#CC(C)(C)O)ncc(OC[C@H]3CCCNC3)c21 + C[C@]1(O)C[C@@H](c2nc(-c3ccc4ccc(-c5ccccc5)nc4c3)c3c(N)nccn32)C1 [Linsitinib] (partner 1 µM)
How it was run: as §1

## ChaGo-K-1
[1]; first compound 0.01 µM
  relative viability: 0.802
[1]; first compound 0.03162 µM
  relative viability: 0.849
[1]; first compound 0.1 µM
  relative viability: 0.852
[1]; first compound 0.3162 µM
  relative viability: 0.911
[1]; first compound 1 µM
  relative viability: 0.896
BAM7 + Tozasertib; first compound 0.5 µM
  relative viability: 0.226
BAM7 + Tozasertib; first compound 5 µM
  relative viability: 0.229
BAM7 + Tozasertib; first compound 15.81 µM
  relative viability: 0.197
BAM7 + Tozasertib; first compound 50 µM
  relative viability: 0.262
[2]; first compound 0.01 µM
  relative viability: 0.972
[2]; first compound 0.03162 µM
  relative viability: 0.795
[2]; first compound 0.1 µM
  relative viability: 1.01
[2]; first compound 0.3162 µM
  relative viability: 0.99
[2]; first compound 1 µM
  relative viability: 0.954

## EBC-1
[1]; first compound 0.01 µM
  relative viability: 0.106
[1]; first compound 0.03162 µM
  relative viability: 0.0912
[1]; first compound 0.1 µM
  relative viability: 0.0934
[1]; first compound 0.3162 µM
  relative viability: 0.102
[1]; first compound 1 µM
  relative viability: 0.0999
[2]; first compound 0.01 µM
  relative viability: 0.549
[2]; first compound 0.03162 µM
  relative viability: 0.566
[2]; first compound 0.1 µM
  relative viability: 0.521
[2]; first compound 0.3162 µM
  relative viability: 0.488
[2]; first compound 1 µM
  relative viability: 0.444
[3]; first compound 0.01 µM
  relative viability: 0.947
[3]; first compound 0.03162 µM
  relative viability: 0.776
[3]; first compound 0.1 µM
  relative viability: 0.837
[3]; first compound 0.3162 µM
  relative viability: 0.732
[3]; first compound 1 µM
  relative viability: 0.632

## EKVX
[1]; first compound 0.01 µM
  relative viability: 0.85
[1]; first compound 0.03162 µM
  relative viability: 0.809
[1]; first compound 0.1 µM
  relative viability: 0.723
[1]; first compound 0.3162 µM
  relative viability: 0.797
[1]; first compound 1 µM
  relative viability: 0.75
BAM7 + Tozasertib; first compound 0.5 µM
  relative viability: 0.424
BAM7 + Tozasertib; first compound 5 µM
  relative viability: 0.36
BAM7 + Tozasertib; first compound 15.81 µM
  relative viability: 0.183
BAM7 + Tozasertib; first compound 50 µM
  relative viability: 0.333
[2]; first compound 0.01 µM
  relative viability: 1.01
[2]; first compound 0.03162 µM
  relative viability: 0.862
[2]; first compound 0.1 µM
  relative viability: 1.15
[2]; first compound 0.3162 µM
  relative viability: 0.994
[2]; first compound 1 µM
  relative viability: 0.965
[3]; first compound 0.01 µM
  relative viability: 0.997
[3]; first compound 0.03162 µM
  relative viability: 0.952
[3]; first compound 0.1 µM
  relative viability: 1.03
[3]; first compound 0.3162 µM
  relative viability: 0.954
[3]; first compound 1 µM
  relative viability: 0.976

## EMC-BAC-2
[1]; first compound 0.01 µM
  relative viability: 1.06
[1]; first compound 0.03162 µM
  relative viability: 1.02
[1]; first compound 0.1 µM
  relative viability: 0.952
[1]; first compound 0.3162 µM
  relative viability: 0.973
[1]; first compound 1 µM
  relative viability: 1.01
BAM7 + Tozasertib; first compound 0.5 µM
  relative viability: 0.302
BAM7 + Tozasertib; first compound 5 µM
  relative viability: 0.291
BAM7 + Tozasertib; first compound 15.81 µM
  relative viability: 0.289
BAM7 + Tozasertib; first compound 50 µM
  relative viability: 0.272
[2]; first compound 0.01 µM
  relative viability: 1.02
[2]; first compound 0.03162 µM
  relative viability: 1
[2]; first compound 0.1 µM
  relative viability: 0.996
[2]; first compound 0.3162 µM
  relative viability: 1.06
[2]; first compound 1 µM
  relative viability: 1.07
[3]; first compound 0.01 µM
  relative viability: 0.82
[3]; first compound 0.03162 µM
  relative viability: 0.852
[3]; first compound 0.1 µM
  relative viability: 0.837
[3]; first compound 0.3162 µM
  relative viability: 0.828
[3]; first compound 1 µM
  relative viability: 0.837

## EPLC-272H
[1]; first compound 0.01 µM
  relative viability: 0.657
[1]; first compound 0.03162 µM
  relative viability: 0.711
[1]; first compound 0.1 µM
  relative viability: 0.675
[1]; first compound 0.3162 µM
  relative viability: 0.632
[1]; first compound 1 µM
  relative viability: 0.738
BAM7 + Tozasertib; first compound 0.5 µM
  relative viability: 0.252
BAM7 + Tozasertib; first compound 15.81 µM
  relative viability: 0.275
BAM7 + Tozasertib; first compound 50 µM
  relative viability: 0.334
[2]; first compound 0.01 µM
  relative viability: 0.859
[2]; first compound 0.03162 µM
  relative viability: 0.957
[2]; first compound 0.1 µM
  relative viability: 0.894
[2]; first compound 0.3162 µM
  relative viability: 0.96
[2]; first compound 1 µM
  relative viability: 0.847
[3]; first compound 0.01 µM
  relative viability: 1.24
[3]; first compound 0.03162 µM
  relative viability: 1.21
[3]; first compound 0.1 µM
  relative viability: 1.03
[3]; first compound 0.3162 µM
  relative viability: 1.17
[3]; first compound 1 µM
  relative viability: 1.39

## H3255
[1]; first compound 0.01 µM
  relative viability: 0.833
[1]; first compound 0.03162 µM
  relative viability: 0.826
[1]; first compound 0.1 µM
  relative viability: 0.891
[1]; first compound 0.3162 µM
  relative viability: 0.875
[1]; first compound 1 µM
  relative viability: 0.777
BAM7 + Tozasertib; first compound 0.5 µM
  relative viability: 0.652
BAM7 + Tozasertib; first compound 5 µM
  relative viability: 0.757
BAM7 + Tozasertib; first compound 15.81 µM
  relative viability: 0.376
BAM7 + Tozasertib; first compound 50 µM
  relative viability: 0.497
[2]; first compound 0.01 µM
  relative viability: 0.634
[2]; first compound 0.03162 µM
  relative viability: 0.679
[2]; first compound 0.1 µM
  relative viability: 0.83
[2]; first compound 0.3162 µM
  relative viability: 0.788
[2]; first compound 1 µM
  relative viability: 0.688
[3]; first compound 0.01 µM
  relative viability: 0.958
[3]; first compound 0.03162 µM
  relative viability: 1.09
[3]; first compound 0.1 µM
  relative viability: 0.903
[3]; first compound 0.3162 µM
  relative viability: 0.888
[3]; first compound 1 µM
  relative viability: 0.843

## HARA
[1]; first compound 0.01 µM
  relative viability: 0.848
[1]; first compound 0.03162 µM
  relative viability: 1.01
[1]; first compound 0.1 µM
  relative viability: 0.864
[1]; first compound 0.3162 µM
  relative viability: 0.833
[1]; first compound 1 µM
  relative viability: 0.876
BAM7 + Tozasertib; first compound 0.5 µM
  relative viability: 0.117
BAM7 + Tozasertib; first compound 5 µM
  relative viability: 0.116
BAM7 + Tozasertib; first compound 15.81 µM
  relative viability: 0.093
BAM7 + Tozasertib; first compound 50 µM
  relative viability: 0.0898
[2]; first compound 0.01 µM
  relative viability: 1.1
[2]; first compound 0.03162 µM
  relative viability: 1.14
[2]; first compound 0.1 µM
  relative viability: 1.08
[2]; first compound 0.3162 µM
  relative viability: 1.07
[2]; first compound 1 µM
  relative viability: 1.11
[3]; first compound 0.01 µM
  relative viability: 0.861
[3]; first compound 0.03162 µM
  relative viability: 0.961
[3]; first compound 0.1 µM
  relative viability: 0.973
[3]; first compound 0.3162 µM
  relative viability: 0.947
[3]; first compound 1 µM
  relative viability: 1.11

## HCC-15
[1]; first compound 0.01 µM
  relative viability: 0.995
[1]; first compound 0.03162 µM
  relative viability: 1.04
[1]; first compound 0.1 µM
  relative viability: 1.05
[1]; first compound 0.3162 µM
  relative viability: 0.903
[1]; first compound 1 µM
  relative viability: 0.92
BAM7 + Tozasertib; first compound 0.5 µM
  relative viability: 0.471
BAM7 + Tozasertib; first compound 5 µM
  relative viability: 0.493
BAM7 + Tozasertib; first compound 15.81 µM
  relative viability: 0.346
BAM7 + Tozasertib; first compound 50 µM
  relative viability: 0.284
[2]; first compound 0.01 µM
  relative viability: 0.988
[2]; first compound 0.03162 µM
  relative viability: 1.06
[2]; first compound 0.1 µM
  relative viability: 1.01
[2]; first compound 0.3162 µM
  relative viability: 0.925
[2]; first compound 1 µM
  relative viability: 0.952
[3]; first compound 0.01 µM
  relative viability: 0.798
[3]; first compound 0.03162 µM
  relative viability: 0.932
[3]; first compound 0.1 µM
  relative viability: 0.856
[3]; first compound 0.3162 µM
  relative viability: 0.816
[3]; first compound 1 µM
  relative viability: 0.828

## HCC-44
BAM7 + Tozasertib; first compound 0.5 µM
  relative viability: 0.94
BAM7 + Tozasertib; first compound 5 µM
  relative viability: 0.711
BAM7 + Tozasertib; first compound 15.81 µM
  relative viability: 0.785
BAM7 + Tozasertib; first compound 50 µM
  relative viability: 0.878
[2]; first compound 0.01 µM
  relative viability: 0.893
[2]; first compound 0.03162 µM
  relative viability: 0.808
[2]; first compound 0.1 µM
  relative viability: 0.89
[2]; first compound 0.3162 µM
  relative viability: 0.907
[2]; first compound 1 µM
  relative viability: 0.911
[3]; first compound 0.01 µM
  relative viability: 0.608
[3]; first compound 0.03162 µM
  relative viability: 0.692
[3]; first compound 0.1 µM
  relative viability: 0.636
[3]; first compound 0.3162 µM
  relative viability: 0.652
[3]; first compound 1 µM
  relative viability: 0.71
